Peptide text beside a SMILES is read from it.
Tests used:
[1] = test system: DLAT lipoyl (K132 and K259); test: DLAT lipoyl levels by PRM quantification in glutamax-stimulated cells; assay type: cell-based, human; conditions: glutamax stimulation, within 48 hr
Protocol: Lipoyl-lysine SRM assay. The relative abundance of lipoyl-lysine-containing peptides identified from immunoisolated, in-gel digested DLAT (described above) was measured in mitochondria lysates using a selected reaction monitoring (SRM) full-scan tandem mass spectrometry assay. Purified mitochondria were isolated from MRC5 stable cell lines expressing EGFP, SIRT4-EGFP, and SIRT4-targeting shRNA (described above). Mitochondria pellets were lysed by agitation and bath sonication in 100 μL of hot (95° C.) buffer containing 0.1 M ammonium bicarbonate, 5 mM tris(2-carboxyethyl)phosphine, 1 mM nicotinamide, and 0.1% RapiGest. Protein concentration was determined using the Bradford reagent (Sigma). […] Eluates from the same sample were pooled and concentrated to near-dryness, diluted to 8 μL, and half were analyzed by an LC-SRM-MS/MS assay on an LTQ Orbitrap Velos mass spectrometry (Thermofisher Scientific). […] At least four co-eluting XICs (dot-product score of ≥0.95) were used for peak area quantification. […] Peak areas were summed across XICs, exported to Excel, and normalized across biological replicates (n=3-6) using the average chromatographic precursor intensity calculated by RawMeat (Vast Scientific, Inc). Statistical significance was determined by unpaired, two-tailed t-tests in Microsoft Excel. […]

PDH = PDH activity assay (immunocapture colorimetric) in fibroblasts stimulated with glutamax; assay type: cell-based, human; conditions: WT fibroblasts, glutamax 4 mM, versus unstimulated cells
Protocol: PDH activity assay. The activity of the PDHC in MRC5 derivate cell lines was measured using the Pyruvate Dehydrogenase Enzyme Activity Microplate Assay Kit (Abcam, cat. #ab109902) according to manufacturer's instructions. 1000 μg/well of cultured cell extract from each line being tested was used as input for PDHC binding, and 5 μg/well of pyruvate dehydrogenase from porcine heart (Sigma-Aldrich, cat. #P7032) used as a positive control for the assay. PDH activity was measured by reduction of NAD+ to NADH, coupled to the reduction of a reporter dye to yield a colored reaction product with an increase in absorbance at 450 nm at room temperature. […] Statistical significance was assessed by one-way ANOVA in GraphPad Prism 5. […]
We next investigated a cellular condition known to inhibit PDH activity, and examined the involvement of SIRT4 in this process. […] In agreement with these observations, we detected elevated expression of endogenous SIRT4 in cells stimulated with glutamax (FIG. 3J). To validate the dependence of PDH inhibition on SIRT4 activity, we first measured PDH activity in SIRT4 OE cells stimulated with glutamax. […] It remains to be determined whether residual SIRT4 still functions in these knocked-down lines to decrease PDH activity following glutamax stimulation, or another yet to be identified PDH inhibition mechanism is at play. […]

SMILES: C[C@H](N)C(=O)N[C@@H](CCC(N)=O)C(=O)O [glutamax] (H-Ala-Gln-OH)
- DLAT lipoyl levels [1]: decrease
- PDH activity (PDH): significant time-dependent decrease
